± gives the expanded uncertainty stated by the source.
Tests used:
[1] = 298.15 K; 101.33 kPa; Liquid
[2] = xn = mol fraction of the nth substance listed; settings: 298.15 K, 101.3 kPa, Liquid; for speed of sound: Sing-around technique in a fixed-path interferometer

Compound CCCCCCCCCC [decane] has a mass density [1] of 726.09 ± 0.52 kg/m3 and a speed of sound [1] of 1234.7 ± 1.1 m/s.

COC(C)(C)C [2-methoxy-2-methylpropane] gave a mass density [1] of 735.35 ± 0.36 kg/m3 and a speed of sound [1] of 1036.1 ± 0.5 m/s.

For CCCCO [butan-1-ol] + CCCCCCCCCC, the speed of sound ([2]; x1 = 1) was 1239.8 ± 0.9 m/s and the mass density ([2]; x1 = 1) was 805.67 ± 0.23 kg/m3.

CCCCO [butan-1-ol] gave a mass density [1] of 805.67 ± 0.29 kg/m3 and a speed of sound [1] of 1239.8 ± 0.7 m/s.

Work on CCCCCCCCCC [decane] + CCCCO yielded a speed of sound ([2]; x2 = 0) of 1234.7 ± 1.4 m/s, a speed of sound ([2]; x2 = 0.04848) of 1230.8 ± 1.3 m/s and a speed of sound ([2]; x2 = 0.09526) of 1228.9 ± 1.3 m/s. It also gave a speed of sound ([2]; x2 = 0.2045) of 1225.6 ± 1.2 m/s, a speed of sound ([2]; x2 = 0.2974) of 1223.9 ± 1.2 m/s and a speed of sound ([2]; x2 = 0.3949) of 1222.7 ± 1.1 m/s. The speed of sound ([2]; x2 = 0.4455) was 1222.5 ± 1.1 m/s, the speed of sound ([2]; x2 = 0.4928) was 1222.4 ± 1.1 m/s and the speed of sound ([2]; x2 = 0.5579) was 1222.7 ± 1.1 m/s. For the same compound, the speed of sound ([2]; x2 = 0.5937) was 1222.9 ± 1.1 m/s, the speed of sound ([2]; x2 = 0.7031) was 1224.6 ± 1 m/s and the speed of sound ([2]; x2 = 0.7901) was 1226.7 ± 1 m/s. The speed of sound ([2]; x2 = 0.8707) was 1230.4 ± 1 m/s, the speed of sound ([2]; x2 = 0.948) was 1235.3 ± 0.9 m/s and the mass density ([2]; x2 = 0) was 726.09 ± 0.46 kg/m3. The mass density ([2]; x2 = 0.04848) was 727.38 ± 0.45 kg/m3, the mass density ([2]; x2 = 0.09526) was 728.99 ± 0.44 kg/m3 and the mass density ([2]; x2 = 0.2045) was 733.33 ± 0.41 kg/m3. It also gave a mass density ([2]; x2 = 0.2974) of 737.65 ± 0.39 kg/m3, a mass density ([2]; x2 = 0.3949) of 742.88 ± 0.37 kg/m3 and a mass density ([2]; x2 = 0.4455) of 745.96 ± 0.36 kg/m3. For the same compound, the mass density ([2]; x2 = 0.4928) was 749.07 ± 0.34 kg/m3, the mass density ([2]; x2 = 0.5579) was 753.72 ± 0.33 kg/m3 and the mass density ([2]; x2 = 0.5937) was 756.5 ± 0.32 kg/m3. It also gave a mass density ([2]; x2 = 0.7031) of 766.17 ± 0.3 kg/m3, a mass density ([2]; x2 = 0.7901) of 775.35 ± 0.28 kg/m3 and a mass density ([2]; x2 = 0.8707) of 785.36 ± 0.26 kg/m3. The mass density ([2]; x2 = 0.948) was 796.76 ± 0.24 kg/m3.

From the NIST ThermoML archive (doi:10.1021/je025579q)
